Assays:
μ opioid receptor (MOR) = molecular target: T1, μ opioid receptor (MOR) (Homo sapiens, UniProt P35372); assay: cell-based; conditions: HEK293 stably expressing μ opioid receptor, FLIPR calcium
T1 construct: host or cells: HEK293
Description: The purpose of the experiment was to test the agonistic effects of the compounds of the present invention on μ opioid receptor (MOR), κ opioid receptor (KOR) and δ opioid receptor (DOR), and to evaluate in vitro activity of the compounds according to the half-maximal effect concentration (EC50).
This test was performed using HEK293 cell lines (the stably expressed cell lines were provided by WuXi AppTec) which stably expressed μ opioid receptor, δ opioid receptor or κ opioid receptor respectively. […] The cells were centrifuged at 1000 rpm for 5 minutes at room temperature to precipitate. The supernatant was sucked out, be careful not to suck out cells. The precipitate was flicked into the loose cells and resuspend in 45 ml DMEM medium. The Vi-CELL XR automatic cell viability detector (BECKMAN COULTER) was used to count the cells, and the cell concentration was adjusted to 10×10^5 cells/ml based on the counting results.
Preparation of probenecid mother solution: 1 ml of FLIPR test solution was added to 77 mg probenecid to prepare a 250 mM solution. The solution was freshly prepared just before use.
The solution was freshly prepared just before use.
The cell plate prepared above was removed from the incubator and 20 ul 2× Fluo-4 Direct™ buffer was added thereto. The final volume in the cell plate was […]. The plate was incubated at 37° C., under 5% CO2 for 50 minutes, and incubated at room temperature for 10 minutes, then was placed into the FLIPR instrument (MD), and the compound plate and pipette box was placed into. The protocol was run on the […] platform, 10 μl of positive drug or the test compound was transfered to the cell plate from the compound plate, and the fluorescent signal was read.
The signal value generated by each well was calculated, and the calculation formula was that: the activity %=(signal value of the test compound−signal value of the solvent)/(signal value of the positive drug−signal value of the solvent).

[1] = molecular target: T2, cAMP pathway of MOR receptor (Homo sapiens, UniProt P35372); assay: cell-based; conditions: cAMP Hunter HEK293 cells, forskolin-induced cAMP; read-out: EC50 of cAMP levels affected by agonistic effect on MOR
T2 construct: host or cells: HEK293 (cAMP Hunter cell line)
T2 sequence (P35372 whole entry): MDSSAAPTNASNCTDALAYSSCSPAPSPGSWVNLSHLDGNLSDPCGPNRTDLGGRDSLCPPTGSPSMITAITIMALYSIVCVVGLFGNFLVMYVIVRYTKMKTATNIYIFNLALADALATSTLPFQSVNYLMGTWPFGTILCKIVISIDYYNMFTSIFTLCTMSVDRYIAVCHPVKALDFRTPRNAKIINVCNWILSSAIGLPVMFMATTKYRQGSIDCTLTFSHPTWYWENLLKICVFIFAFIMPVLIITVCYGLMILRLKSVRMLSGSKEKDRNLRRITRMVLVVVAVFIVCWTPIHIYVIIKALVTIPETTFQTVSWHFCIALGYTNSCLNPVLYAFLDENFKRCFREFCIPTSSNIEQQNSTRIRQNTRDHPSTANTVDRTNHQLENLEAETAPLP
From the text: The purpose of this experiment was to test the agonistic effect of the compounds of the invention on the cAMP pathway of MOR and to evaluate the in vitro activity of the compounds according to EC50.
In this experiment, HitHunter cAMP Assay EFC technology of DiscoverX was used to measure the cAMP level in cells and monitor the functional status of G-protein coupled receptors (GPCRs).
The amount of signal produced was directly proportional to the amount of cAMP in the cell.
The MOR receptor was bound to the inhibitory Gαi protein, so forskolin (for inducing cAMP signal) was used to induce cAMP expression in the experiment, and the inhibitory effect of the compounds on the above induction was measured.
The cAMP Hunter cell line (HEK293, DiscoverX) was removed from the freezer and expanded according to the Cell Standard Operating Procedure (SOP), 20 μL was collected and inoculated into a 384-well microplate and incubated at 37° C. overnight.
The HitHunter cAMP Assay test kit (DiscoverX, 90-0075sm) was used, the kit contained cAMP buffer, cAMP detection solution, and cAMP working solution A.
The formula was used to calculate the percentage of signal activity per well=100%×(1−(average RLU of the test samples−average RLU of the MAX controls)/(average RLU of the solvent controls−average RLU of the MAX controls)). wherein, the MAX control referred to the fluorescence signal value of the endorphin solution, and the solvent control referred to the fluorescence signal value of DMSO. The DiscoveRx CBIS data analysis workstation (ChemInnovation, CA) was used to perform statistical analysis of the percentage of signal activity and the concentration of the compounds by the agonist formula (comes with the software, universal) to calculate the EC50 value.

[2] = molecular target: T3, β-arrestin signaling pathway of MOR (Homo sapiens, UniProt P35372); assay: cell-based; conditions: PathHunter HEK293 cells, relative to endorphin MAX control
T3 construct: host or cells: HEK293 (PathHunter cell line)
T3 sequence (P35372 whole entry): as above

[3] = test system: rat surgical incision injury model; assay: Rat surgical incision injury model, von Frey paw withdrawal threshold; format: in vivo, SD rats; conditions: rats, intravenous 0.3 mg/kg
From the text: (§1) 8-week-old male SD rats weighing 200 g-300 g were used as experimental animals to determine the effect of the compound of Example H02, the compound of Example H04, the compound of Example H10, the compound of Example H16, the compound of Example H17, the compound of Example H18, the compound of Example H21 and the compound of Example H24 on surgical pain in rats after intravenous administration. The analgesic effect of the compounds was discussed.
A certain amount of the compounds or TRV130 (MCE, 15150) was weighed, and dissolved in ethanol/castor oil/water=10/10/80 as a clear and transparent solution.
Three days after the rats were acclimatized to the experimental environment, the preoperative base value was determined, and followed by the surgical pain operation described below, about 24 hours after the surgery, the basic value was measured before administration on all animals, and mechanically hypersensitive animals (the paw withdrawal threshold (PWT) was less than 5 g) was randomly assigned to each administration group according to PWT. The pain threshold was determined 30 minutes and 60 minutes after intravenous administration of the positive drug TRV130 or each compound of the present invention (at a dose of 0.3 mg/kg).
The surgical procedure was performed aseptically, and the surgical instruments (scissors, tweezers, scalpels, surgical cotton and sutures) were sterilized before surgery. The animals were anesthetized with sodium pentobarbital (50 mg/kg, injected intraperitoneally), and the toes of the animals were squeezed to confirm that the animals were completely anesthetized before surgery. From the position of 0.5 cm away from the heel, an incision about 1 cm was made in the longitudinal direction of the toe. After cutting the skin, the musculus flexor digitorum brevis was raised and a blunt injury was caused longitudinally. After pressing to stop bleeding, the wound was sutured. When the animal was completely awake (free to move), the animal was put back into the cage (the reference of the construction of surgical pain model: Timothy J. Brennan, Erik P. Vandermeulen, G. F. Gebhart. Characterization of a rat model of incisional pain. Pain, 64(1996):493-501).
An up-down method was used for the determination of pain sensitivity. The mechanical pain results were expressed as animal paw withdrawal response threshold (PWT). The rat was placed separately in a plexiglass box with a mesh at the bottom of the box to ensure that the rat's feet could be tested. The rat was acclimatized for 15 minutes before the test, and after the acclimatization, the test fiber (von frey fiber, West coast) was used to test in the middle part of the hind foot of the rat. The test fibers included 8 test strengths: 3.61 (0.4 g), 3.84 (0.6 g), 4.08 (1 g), 4.31 (2 g), 4.56 (4 g), 4.74 (6 g), 4.93 (8 g), and 5.18 (15 g). During the test, the test fiber was pressed vertically against the skin and a force was applied to bend the fiber for 6-8 seconds, at an interval of 5 seconds between each test. During the test, the animal's rapid withdrawal was recorded as a pain response. When the test fiber left the animal's skin, the animal's withdrawal was also recorded as a pain response. Starting from 2 g, depending on whether the rats had any pain response, the test was changed into the next test intensity or the previous test intensity. A series of responses of the rats to different test intensities were recorded. […] Wherein, Xf was the logarithmic value of von Frey fiber used in the last test, and K value was the animal withdrawal reaction mode (recorded during the test), which was the value obtained after looking up the table according to the obtained sequence of “X” and “O”, δ=Mean of logarithmic difference between von Frey fibers used in the test.

SD rats = assay: Respiratory depression in rats, arterial blood gas PCO2; format: in vivo
From the text: as §1, with “H05,” for “H02,”, “H08,” for “H04,”, “H21,” for “H21”, “the partial pressure of blood” for “surgical pain”, “effects” for “analgesic effect”, “of the invention on respiratory depression were investigated.” for “was discussed.”
After the rats were acclimatized to the experimental environment for 3 days, each animal was anesthetized with sodium pentobarbital (50-60 mg/kg, ip), and then the right common carotid artery was isolated and the unilateral carotid artery tube-bury surgery was performed (PE60, ID*OD*length as 0.76 mm*1.22 mm*20 cm, buried into the artery 1 cm deep, and the tube was filled with heparin sodium tube sealing solution).

T1 sequence (P35372 whole entry, species assumed): as the sequence (P35372 whole entry) above

Cc1cc(F)cnc1C1(CCNCc2ccccc2OC(F)(F)F)CCOC2(CCCC2)C1 (stereo not drawn) [Example H10, (2-trifluoromethoxybenzyl)-[2-(9-(3-methyl-5-fluoropyridin-2-yl)-6-oxaspiro[4.5]decan-9-yl)ethyl]amine]
EC50 (μ opioid receptor (MOR)): 2.15 nM
EC50 [1]: 2.89 nM
Emax [2]: 3.7%
50% PWT, 30 min after administration [3]: 8.05 ± 0.24 g
50% PWT, 60 min after administration [3]: 7.59 ± 1.02 g
PCO2, 5 min before administration (SD rats; arterial blood, before administration): 35.72 ± 1.88 mmHg
PCO2, 5 min after administration (SD rats; intravenous single dose 0.3 mg/kg (morphine 24 mg/kg), 5 min): 37.48 ± 1.94 mmHg
PCO2, 30 min after administration (SD rats; intravenous single dose 0.3 mg/kg (morphine 24 mg/kg), 30 min): 35.03 ± 1.89 mmHg
PCO2, 60 min after administration (SD rats; intravenous single dose 0.3 mg/kg (morphine 24 mg/kg), 60 min): 36.27 ± 1.67 mmHg
PCO2, 120 min after administration (SD rats; intravenous single dose 0.3 mg/kg (morphine 24 mg/kg), 120 min): 36.83 ± 1.85 mmHg

COc1ccsc1CNCC[C@@]1(c2ccccn2)CCOC2(CCCC2)C1 [TRV130, reference compound]
50% PWT, 30 min after administration [3]: 6.05 ± 0.44 g
50% PWT, 60 min after administration [3]: 5.71 ± 0.33 g

— patent publication US11072601B2, “μ-opioid receptor agonist and preparation method therefor and use thereof in field of medicine” (SHANGHAI SYNERGY PHARMACEUTICAL SCIENCES CO., LTD., priority 2017, dated 2021)
